Data on 17 compounds can be found in patent US5484940A, “Substituted 3-indolyl-5-pyrazolone compounds” (priority 1994, dated 1996).

The test system of one data set is human cortical neurons. The data set is described as follows: Inhibition of toxicity of β-amyloid peptide to human neuronal cells (alamarBlue). In kind it is cell-based. To be noted: 50 μM β-amyloid peptide, 2-3 days; on average where more than one duplicate experiment; compound concentration not stated. As to the method:
The purpose of this test is to determine the effect of 3-indolyl-5-pyrazolone compounds on the toxicity of β-amyloid peptide to neuronal cells.
Primary Human Cortical Cell Culture
Primary human cortical cultures were prepared using a modification of the procedure described by Seubert, et al.^21 Following filtration through Nitex nylon screens, cortical tissue was resuspended in a trypsin/EDTA solution (0.05% trypsin+0.53 mM EDTA in HBSS; GIBCO Laboratories, Grand Island, N.Y., USA) and kept at 37° C. for 20 minutes. The trypsin was then inactivated by resuspending the cells in serum-containing medium (MEM/FBS: Modified Eagles' Medium (MEM) containing 1% glucose, 1 mM sodium pyruvate, 1 mM glutamine, and supplemented with 10% fetal bovine serum (GIBCO). Cells were then pelleted by centrifugation and resuspended in a chemically-defined medium (MEM/B27: MEM containing B27 supplement in place of FBS; GIBCO). Polyethyleneimine (PEI; Sigma Chemical Company, St. Louis, Mo., USA)-coated 6.4 mm (96-well) dishes were rinsed once with MEM/FBS, and then seeded at 0.75 to 1.25×10^5 cells per well in 0.1 mL MEM/B27. Cultures were maintained in a H2 O-saturated incubator with an atmosphere of 95% air/5% CO 2 at 37° C. The culture medium was exchanged twice weekly. Cell viability was visually assessed by phase contrast microscopy and quantified by measuring the reduction of alamarBlue™ (Alamar Biosciences, Inc., Sacramento, Calif., USA).
β-amyloid peptide stock solutions were prepared as 1 mM stocks in sterile, doubly distilled water immediately prior to addition to cultures. Rat cortical neurons were exposed to β-amyloid peptide by removing the culture medium and replacing it with DMEM/N2 (GIBCO Laboratories,Grand Island, N.Y., USA) containing 10 to 20 μM β-amyloid peptide. Human cortical neurons were exposed to test compound plus β-amyloid peptide by removing the culture medium and replacing it with MEM containing 50 μM β-amyloid peptide. Cultures were maintained for 2-3 days before neuronal survival was quantified using alamarBlue™.
The alamarBlue™ assay incorporates a fluorometric/colorimetric metabolic indicator (Alamar Biosciences, Inc. Sacramento, Calif., USA). Viable cells convert alamarBlue™ from an oxidized (non-fluorescent, blue) form to a reduced (fluorescent, red) form. Assays were preformed by replacing the culture media with a 10% alamarBlue™ solution in DMEM (rat cortical cultures) or MEM (human cortical cultures).

Data set [1] concerns β-amyloid peptide production. Kind of data set: Cellular screen for inhibitors of β-amyloid production (ELISA, 293 751 SWE cells). It counts as cell-based, human. The conditions noted are these: 2 h pretreatment + 2 h, normalized for cytotoxicity (MTT), concentration not given. As to the method: (§1) This screening assay employed cells (K293=human kidney cell line) which were stably transfected with the gene for amyloid precursor protein 751 (APP751) containing the double mutation Lys651 Met652 to Asn651 Leu652 (APP751 numbering) in the manner described in International Patent Application Publication No. 94/10569^1 and Citron et al.^16. This mutation is commonly called the Swedish mutation and the cells, designated as "293 751 SWE", were plated in Coming 96-well plates at 1.5-2.5×10^4 cells per well in Dulbecco's minimal essential media plus 10% fetal bovine serum. Cell number is important in order to achieve β-amyloid ELISA results within the linear range of the assay (~0.2 to 2.5 ng per mL).
Following overnight incubation at 37° C. in an incubator equilibrated with 10% carbon dioxide, media were removed and replaced with 200 μL of a substituted 3-indolyl-5-pyrazolone (drug) containing media per well for a two hour pretreatment period and cells were incubated as above.
At the end of the pretreatment period, the media were again removed and replaced with fresh drag containing media as above and cells were incubated for an additional two hours. After treatment, plates were centrifuged in a Beckman GPR at 1200 rpm for five minutes at room temperature to pellet cellular debris from the conditioned media. From each well, 100 μL of conditioned media or appropriate dilutions thereof were transferred into an ELISA plate precoated with antibody 266 against amino acids 13-28 of β-amyloid peptide as described in International Patent Application Publication No. 94/10569^1 and stored at 4° C. overnight. An ELISA assay employing labelled antibody 6C6 against amino acids 1-16 of β-amyloid peptide was run the next day to measure the amount of β-amyloid peptide produced.
The results of the β-amyloid peptide ELISA were fit to a standard curve and expressed as ng/mL β-amyloid peptide. […] All results are the mean and standard deviation of at least six replicate assays.
In general terms: In an ELISA, binding on a coated surface is turned into a signal by an enzyme label.

The subject of another data set is 293 751 SWE cells. The data set is described as follows: Cytotoxicity (MTT) in 293 751 SWE cells. In kind it is cell-based, human. To be noted: concentration not given. As to the method: as §1
Cytotoxic effects of the compounds were measured by a modification of the method of Hansen, et al.^17. To the cells remaining in the tissue culture plate was added 25 μL of a 3,(4,5-dimethylthiazol-2-yl)2,5-diphenyltetrazolium bromide (MTT) stock solution (5 mg/mL) to a final concentration of 1 mg/mL. Cells were incubated at 37° C. for one hour, and cellular activity was stopped by the addition of an equal volume of MTT lysis buffer (20% w/v sodium dodecylsulfate in 50% dimethylformamide, pH 4.7). Complete extraction was achieved by overnight shaking at room temperature. The difference in the OD562nm and the OD650nm was measured in a Molecular Device's UVmax microplate reader as an indicator of the cellular viability.

A value given as a limit tells only on which side of the number the result lay.

Take `COc1ccc2c(c1)c(CC1=NN(C3CCC3)C(=O)C1)c(C)n2C(=O)c1ccc(Cl)cc1` [Example 10, 3-[1-(4-chlorobenzoyl)-5-methoxy-2-methyl-3-indolylmethyl]-1-cyclobutyl-5-pyrazolone]: the “inhibition of the toxicity of β-amyloid peptide to human neuronal cells” value in the data set with human cortical neurons was “at least 25%”.
Take `COc1ccc2c(c1)c(CC1=NN(c3cc(C)cc(C)c3)C(=O)C1)c(C)n2C(=O)c1ccc(Cl)cc1` [Example 29, 3-[1-(4-chlorobenzoyl)-5-methoxy-2-methyl-3-indolylmethyl]-1-(3,5-dimethylphenyl)-5-pyrazolone]: in data set [1], the “reduction of β-amyloid peptide production as compared to control” value (from here on “reduction”) is on record as “at least 20%”. The “cytotoxic effect on the 293 751 SWE cells” value (“cytotoxic effect” below) in the data set with 293 751 SWE cells is recorded as “did not have a significant cytotoxic effect”.
Consider `COc1ccc2c(c1)c(CC1=NN(c3ccc(C(F)(F)F)cc3)C(=O)C1)c(C)n2C(=O)c1ccc(Cl)cc1` [Example 37, 3-[1-(4-chlorobenzoyl)-5-methoxy-2-methyl-3-indolylmethyl]-1-(4-trifluoromethylphenyl)-5-pyrazolone], for which the “reduction” value in data set [1] is “at least 20%”. Moreover, in the data set with 293 751 SWE cells, the “cytotoxic effect” value was “did not have a significant cytotoxic effect”.
On to `COc1ccc2c(c1)c(CC1=NN(C3CCCCC3)C(=O)C1)c(C)n2C(=O)c1ccc(Cl)c(Cl)c1` [Example 39, 3-[1-(3,4-dichlorobenzoyl)-5-methoxy-2-methyl-3-indolylmethyl]-1-cyclohexyl-5-pyrazolone], for which the “reduction” value in data set [1] was “at least 20%”. The “cytotoxic effect” value in the data set on 293 751 SWE cells is “did not have a significant cytotoxic effect”.
`COc1ccc2c(c1)c(CC1=NN(c3cccc(N)c3)C(=O)C1)c(C)n2C(=O)c1ccc(Cl)cc1` [Example 40, 3-[1-(4-chlorobenzoyl)-5-methoxy-2-methyl-3-indolylmethyl]-1-(3-aminophenyl)-5-pyrazolone]: in data set [1], the “reduction” value was under 20%. Besides, the “inhibition of the toxicity of β-amyloid peptide to human neuronal cells” value with human cortical neurons is reported as “at least 25%”.
Regarding `COc1ccc2c(c1)c(CC1=NN(C3CCCCC3)C(=O)C1C)c(C)n2C(=O)c1ccc(Cl)cc1` (stereo not drawn) [Example 43, 3-[1-(4-chlorobenzoyl)-5-methoxy-2-methyl-3-indolylmethyl]-1-cyclohexyl-4-methyl-5-pyrazolone], in data set [1], the “reduction” value is “at least 20%”. In addition, in the data set on 293 751 SWE cells, the “cytotoxic effect” value was “did not have a significant cytotoxic effect”.
In the case of `COc1ccc2c(c1)c(CC1=NN(C3CCCCC3)C(=O)C1(C)C)c(C)n2C(=O)c1ccc(Cl)cc1` [Example 44, 3-[1-(4-chlorobenzoyl)-5-methoxy-2-methyl-3-indolylmethyl]-1-cyclohexyl-4,4-dimethyl-5-pyrazolone], in data set [1], the “reduction” value was “at least 20%”. Also, the “cytotoxic effect” value in the data set on 293 751 SWE cells is on record as “did not have a significant cytotoxic effect”.
The matching figures for `COc1ccc2c(c1)c(CC1=NN(C)C(=O)C1)c(C)n2C(=O)c1ccc(Cl)cc1` [Example 46, 3-[1-(4-chlorobenzoyl)-5-methoxy-2-methyl-3-indolylmethyl]-1-methyl-5-pyrazolone]: “at least 20%” and “did not have a significant cytotoxic effect”.
As for `O=C1CC(CCCc2c[nH]c3ccccc23)=NN1C1CCCCC1` [Example 49, 3-[3-indolyl-n-propyl]-1-cyclohexyl-5-pyrazolone], in data set [1], the “reduction” value was “at least 20%”. Further, in the data set on 293 751 SWE cells, the “cytotoxic effect” value was “did not have a significant cytotoxic effect”.
As for `COc1ccc2c(c1)c(CC1=NN(c3cccc(C(F)(F)F)c3)C(=O)C1)c(C)n2C(=O)c1ccc2ccccc2c1` [Example 51], the “reduction” value in data set [1] is listed as “at least 20%”. Moreover, the “cytotoxic effect” value with 293 751 SWE cells is reported as “did not have a significant cytotoxic effect”.
Turning to `COc1ccc2c(c1)c(CC1=NN(c3cccc(C(F)(F)F)c3)C(=O)C1)c(C)n2C(=O)c1ccccc1` [Example 53, 3-[1-benzoyl-5-methoxy-2-methyl-3-indolylmethyl]-1-(3-trifluoromethylphenyl)-5-pyrazolone], the “reduction” value in data set [1] is recorded as “at least 20%”. Moreover, the “cytotoxic effect” value with 293 751 SWE cells is “did not have a significant cytotoxic effect”.
As to `COc1ccc2c(c1)c(CC1=NN(c3ccc(C(F)(F)F)cc3)C(=O)C1)c(C)n2C(=O)c1ccc(C#N)cc1` [Example 55, 3-[1-(4-cyanobenzoyl)-5-methoxy-2-methyl-3-indolylmethyl]-1-(4-trifluoromethylphenyl)-5-pyrazolone], in data set [1], the “reduction” value is on record as “at least 20%”. Also, the “cytotoxic effect” value with 293 751 SWE cells is “did not have a significant cytotoxic effect”.
Regarding `COc1ccc(C(=O)n2c(C)c(CC3=NN(C4CCCCC4)C(=O)C3)c3cc(OC)ccc32)cc1` [Example 57, 3-[1-(4-methoxybenzoyl)-5-methoxy-2-methyl-3-indolylmethyl]-1-cyclohexyl-5-pyrazolone], the “reduction” value in data set [1] is “at least 20%”. Moreover, the “cytotoxic effect” value in the data set with 293 751 SWE cells is given as “did not have a significant cytotoxic effect”.
Consider `COc1ccc(C(=O)n2c(C)c(CC3=NN(c4cccc(C(F)(F)F)c4)C(=O)C3)c3cc(OC)ccc32)cc1` [Example 58, 3-[1-(4-methoxybenzoyl)-5-methoxy-2-methyl-3-indolylmethyl]-1-(3-trifluoromethylphenyl)-5-pyrazolone], for which the “reduction” value in data set [1] is recorded as “at least 20%”. Moreover, the “cytotoxic effect” value with 293 751 SWE cells was “did not have a significant cytotoxic effect”.
Take `CCCC(=O)n1c(C)c(CC2=NN(C3CCCCC3)C(=O)C2)c2cc(OC)ccc21` [Example 60, 3-[1-butanoyl-5-methoxy-2-methyl-3-indolylmethyl]-1-cyclohexyl-5-pyrazolon]: in data set [1], the “reduction” value is “at least 20%”. For the same compound, the “cytotoxic effect” value in the data set on 293 751 SWE cells is given as “did not have a significant cytotoxic effect”.
As for `Cc1c(CC2=NN(C3CCCCC3)C(=O)C2)c2cc(Cl)ccc2n1C(=O)c1ccc(Cl)cc1` [Example 62, 3-[1-chlorobenzoyl-5-chloro-2-methyl-3-indolylmethyl]-1-cyclohexyl-5-pyrazolone], the “reduction” value in data set [1] is recorded as “at least 20%”. For the same compound, in the data set on 293 751 SWE cells, the “cytotoxic effect” value is on record as “did not have a significant cytotoxic effect”.
For `Cc1c(CC2=NN(c3cccc(C(F)(F)F)c3)C(=O)C2)c2cc(Cl)ccc2n1C(=O)c1ccc(Cl)cc1` [Example 63, 3-[1-(4-chlorobenzoyl)-5-chloro-2-methyl-3-indolylmethyl]-1-(3-trifluoromethylphenyl)-5-pyrazolone], the “reduction” value in data set [1] is on record as “at least 20%”. Also, the “cytotoxic effect” value with 293 751 SWE cells is “did not have a significant cytotoxic effect”.
